PMC4856055 (Journal of medicinal chemistry, 2015)
Where “and” joins values, the source holds several entries; their conditions need not be identical. Identical values can stand only once. Like-named read-outs stand apart in the source and are kept apart here.

How the values were obtained:
[1] = system: PSMA+ PC3 PIP and PSMA– PC3 flu xenografts; format: in vivo, mice; conditions: for PIP:blood ratio / PIP:flu ratio / PIP:kidney ratio / PIP:muscle ratio / biodistribution, PC-3 PIP tumor / biodistribution, PC-3 flu tumor / biodistribution, bladder / biodistribution, blood / biodistribution, bone / biodistribution, fat / biodistribution, heart / biodistribution, kidney / biodistribution, large intestine / biodistribution, liver / biodistribution, lung / biodistribution, muscle / biodistribution, pancreas / biodistribution, small intestine / biodistribution, spleen / biodistribution, stomach: tumor bearing mice
[2] = system: PSMA+ PC3 PIP and PSMA– PC3 flu tumor xenografts; test: Small animal PET or PET/CT imaging of tumor bearing mice; format: in vivo
[3] = target: PSMA (Homo sapiens, UniProt Q04609); conditions: ref 13d; cited from earlier work
PSMA, sequence (Q04609 whole entry): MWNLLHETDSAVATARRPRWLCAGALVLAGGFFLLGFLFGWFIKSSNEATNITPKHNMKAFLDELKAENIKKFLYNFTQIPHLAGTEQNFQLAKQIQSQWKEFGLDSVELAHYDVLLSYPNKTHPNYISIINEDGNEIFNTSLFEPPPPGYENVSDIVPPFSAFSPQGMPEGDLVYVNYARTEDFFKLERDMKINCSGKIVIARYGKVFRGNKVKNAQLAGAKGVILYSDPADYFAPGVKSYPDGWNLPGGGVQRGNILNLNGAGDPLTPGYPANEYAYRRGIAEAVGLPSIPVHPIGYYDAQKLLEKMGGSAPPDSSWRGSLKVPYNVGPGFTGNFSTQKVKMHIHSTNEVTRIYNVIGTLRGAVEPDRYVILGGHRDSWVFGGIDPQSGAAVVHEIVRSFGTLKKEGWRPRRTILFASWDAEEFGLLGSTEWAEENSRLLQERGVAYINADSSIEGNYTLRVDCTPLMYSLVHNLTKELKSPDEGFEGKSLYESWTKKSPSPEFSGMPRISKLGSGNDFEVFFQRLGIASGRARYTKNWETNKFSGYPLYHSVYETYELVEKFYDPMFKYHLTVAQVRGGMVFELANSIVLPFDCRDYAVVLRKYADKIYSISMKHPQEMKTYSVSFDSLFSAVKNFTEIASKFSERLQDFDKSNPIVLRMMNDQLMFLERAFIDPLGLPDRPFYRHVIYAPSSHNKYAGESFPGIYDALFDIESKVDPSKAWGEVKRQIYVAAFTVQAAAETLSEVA

O=C(O)CCC(OC(=O)NC(CCCCNC(=O)c1ccc(I)cc1[18F])C(=O)O)C(=O)O (stereo not drawn) [[^18F]24, 4-iodo-2-[^18F]fluorobenzoyllysine OPA carbamate]
PIP:blood ratio ([1]; 0.5 h postinjection): 5.6
PIP:flu ratio ([1]; 0.5 h postinjection): 9.1
PIP:kidney ratio ([1]; 0.5 h postinjection): 0.5
PIP:muscle ratio ([1]; 0.5 h postinjection): 47 and 46.6
biodistribution, PC-3 PIP tumor ([1]; 0.5 h postinjection): 45 % ID/g and 44.7 ± 0.62 % ID/g
biodistribution, PC-3 flu tumor ([1]; 0.5 h postinjection): 4.91 ± 1.10 % ID/g
biodistribution, bladder ([1]; 0.5 h postinjection): 3.89 ± 0.40 % ID/g
biodistribution, blood ([1]; 0.5 h postinjection): 7.94 ± 0.99 % ID/g
biodistribution, bone ([1]; 0.5 h postinjection): 1.52 ± 0.19 % ID/g
biodistribution, fat ([1]; 0.5 h postinjection): 1.65 ± 0.67 % ID/g
biodistribution, heart ([1]; 0.5 h postinjection): 2.27 ± 0.32 % ID/g
biodistribution, kidney ([1]; 0.5 h postinjection): 94.4 ± 8.22 % ID/g
biodistribution, large intestine ([1]; 0.5 h postinjection): 1.83 ± 0.16 % ID/g
biodistribution, liver ([1]; 0.5 h postinjection): 16.6 ± 1.61 % ID/g
biodistribution, lung ([1]; 0.5 h postinjection): 5.13 ± 0.29 % ID/g
biodistribution, muscle ([1]; 0.5 h postinjection): 0.96 ± 0.21 % ID/g
biodistribution, pancreas ([1]; 0.5 h postinjection): 1.78 ± 0.15 % ID/g
biodistribution, small intestine ([1]; 0.5 h postinjection): 1.37 ± 0.06 % ID/g
biodistribution, spleen ([1]; 0.5 h postinjection): 14.6 ± 4.41 % ID/g
biodistribution, stomach ([1]; 0.5 h postinjection): 1.80 ± 0.08 % ID/g
PIP:blood ratio ([1]; 1 h postinjection): 20 and 19.7
PIP:flu ratio ([1]; 1 h postinjection): 25.4
PIP:kidney ratio ([1]; 1 h postinjection): 0.5
PIP:muscle ratio ([1]; 1 h postinjection): 100 and 100.2
biodistribution, PC-3 PIP tumor ([1]; 1 h postinjection): 57.1 ± 19.55 % ID/g
biodistribution, PC-3 flu tumor ([1]; 1 h postinjection): 2.25 ± 1.62 % ID/g
biodistribution, bladder ([1]; 1 h postinjection): 2.19 ± 0.22 % ID/g
biodistribution, blood ([1]; 1 h postinjection): 2.90 ± 1.98 % ID/g
biodistribution, bone ([1]; 1 h postinjection): 0.78 ± 0.14 % ID/g
biodistribution, fat ([1]; 1 h postinjection): 0.88 ± 0.68 % ID/g
biodistribution, heart ([1]; 1 h postinjection): 1.23 ± 0.22 % ID/g
biodistribution, kidney ([1]; 1 h postinjection): 122 ± 21.9 % ID/g
biodistribution, large intestine ([1]; 1 h postinjection): 0.78 ± 0.13 % ID/g
biodistribution, liver ([1]; 1 h postinjection): 15.5 ± 2.00 % ID/g
biodistribution, lung ([1]; 1 h postinjection): 3.31 ± 0.41 % ID/g
biodistribution, muscle ([1]; 1 h postinjection): 0.57 ± 0.06 % ID/g
biodistribution, pancreas ([1]; 1 h postinjection): 1.23 ± 0.29 % ID/g
biodistribution, small intestine ([1]; 1 h postinjection): 1.83 ± 1.12 % ID/g
biodistribution, spleen ([1]; 1 h postinjection): 7.81 ± 4.22 % ID/g
biodistribution, stomach ([1]; 1 h postinjection): 0.99 ± 0.17 % ID/g
PIP:blood ratio ([1]; 2 h postinjection): 66
PIP:flu ratio ([1]; 2 h postinjection): 71.1
PIP:kidney ratio ([1]; 2 h postinjection): 0.7
PIP:muscle ratio ([1]; 2 h postinjection): 250 and 250.5
biodistribution, PC-3 PIP tumor ([1]; 2 h postinjection): 85.2 ± 5.44 % ID/g
biodistribution, PC-3 flu tumor ([1]; 2 h postinjection): 1.20 ± 0.31 % ID/g
biodistribution, bladder ([1]; 2 h postinjection): 7.48 ± 0.68 % ID/g
biodistribution, blood ([1]; 2 h postinjection): 1.29 ± 0.87 % ID/g
biodistribution, bone ([1]; 2 h postinjection): 0.36 ± 0.02 % ID/g
biodistribution, fat ([1]; 2 h postinjection): 1.12 ± 0.43 % ID/g
biodistribution, heart ([1]; 2 h postinjection): 0.57 ± 0.09 % ID/g
biodistribution, kidney ([1]; 2 h postinjection): 115 ± 13.2 % ID/g
biodistribution, large intestine ([1]; 2 h postinjection): 0.55 ± 0.01 % ID/g
biodistribution, liver ([1]; 2 h postinjection): 8.99 ± 0.55 % ID/g
biodistribution, lung ([1]; 2 h postinjection): 1.91 ± 0.29 % ID/g
biodistribution, muscle ([1]; 2 h postinjection): 0.34 ± 0.07 % ID/g
biodistribution, pancreas ([1]; 2 h postinjection): 0.92 ± 0.40 % ID/g
biodistribution, small intestine ([1]; 2 h postinjection): 1.19 ± 0.61 % ID/g
biodistribution, spleen ([1]; 2 h postinjection): 6.78 ± 1.25 % ID/g
biodistribution, stomach ([1]; 2 h postinjection): 0.51 ± 0.07 % ID/g
PIP:blood ratio ([1]; 4 h postinjection): 156 and 155.8
PIP:flu ratio ([1]; 4 h postinjection): 231.1
PIP:kidney ratio ([1]; 4 h postinjection): 1.3
PIP:muscle ratio ([1]; 4 h postinjection): 743
biodistribution, PC-3 PIP tumor ([1]; 4 h postinjection): 97 % ID/g and 96.6 ± 18.7 % ID/g
biodistribution, PC-3 flu tumor ([1]; 4 h postinjection): 0.42 ± 0.07 % ID/g
biodistribution, bladder ([1]; 4 h postinjection): 2.03 ± 1.09 % ID/g
biodistribution, blood ([1]; 4 h postinjection): 0.62 ± 0.10 % ID/g
biodistribution, bone ([1]; 4 h postinjection): 0.18 ± 0.04 % ID/g
biodistribution, fat ([1]; 4 h postinjection): 0.58 ± 0.17 % ID/g
biodistribution, heart ([1]; 4 h postinjection): 0.24 ± 0.04 % ID/g
biodistribution, kidney ([1]; 4 h postinjection): 74.4 ± 13.8 % ID/g
biodistribution, large intestine ([1]; 4 h postinjection): 0.96 ± 0.25 % ID/g
biodistribution, liver ([1]; 4 h postinjection): 2.77 ± 0.49 % ID/g
biodistribution, lung ([1]; 4 h postinjection): 0.94 ± 0.06 % ID/g
biodistribution, muscle ([1]; 4 h postinjection): 0.13 ± 0.04 % ID/g
biodistribution, pancreas ([1]; 4 h postinjection): 0.26 ± 0.06 % ID/g
biodistribution, small intestine ([1]; 4 h postinjection): 0.24 ± 0.09 % ID/g
biodistribution, spleen ([1]; 4 h postinjection): 3.49 ± 0.86 % ID/g
biodistribution, stomach ([1]; 4 h postinjection): 0.19 ± 0.03 % ID/g
tumor/kidney ratio ([1]; at 2–4 h): approximately 1
PSMA+ PC3 PIP tumor uptake on small animal PET imaging ([2]; male SCID mice with PSMA+ PC3 PIP and PSMA– PC3 flu xenografts): Intense and selective radiotracer uptake
uptake in salivary glands on imaging ([2]; mouse, in vivo): Neither [^18F]23 nor [^18F]24 demonstrated any uptake in salivary glands

O=C(O)CC[C@H](NC(=O)N[C@@H](CCCCNC(=O)c1ccc(F)cc1)C(=O)O)C(=O)O [compound 9]
Ki [3]: 0.25 nM
